Results taken from patent publication US6572880B2, “Methods and transdermal compositions for pain relief” (priority 1996, dated 2003).
Entries after “also recorded” stand apart in the source; their conditions may differ. Where a name gives a salt, the structure may show the parent alone.

Key:
[1] = in vivo
Description: A dosage of 40 mg per day was self-administered by a patient by application to the skin, for a period of at least 1 hour.
Sertraline (Zoloft) gel was prepared, according to the procedures of example 9. A dosage of 100 mg per day was self-administered by a patient by application to the skin, for a period of at least 1 hour.
A dosage of 20 mg per day was self-administered by a patient by application to the skin, for a period of at least 1 hour.
Carbamazepine (Tegretol) gel was prepared, according to the procedures of example 4. A dosage of 400 mg per day was self-administered by a patient by application to the skin, for a period of at least 1 hour.
(§1) Carbamazepine (Tegretol) gel was prepared, according to the procedures of example 4. A dosage of 200 mg per day was self-administered by a patient by application to the skin, for a period of at least 1 hour.
Sertraline (Zoloft) gel was prepared, according to the procedures of example 9. A dosage of 50 mg per day was self-administered by a patient by application to the skin, for a period of at least 1 hour.
as §1
A dosage of 100 mg per day was selfadministered by a patient by application to the skin, for a period of at least 1 hour.
A dosage of 80-160 mg per day was self administered by a person by application to the skin, for a period of at least 1 hour. […] The dosage was then increased to 160 mg per day and administered by the same method.
A dosage of 80-160 mg/day was self administered by a person by application to the skin, for a period of at least 1 hour. […] The dosage was then increased to 160 mg per day and administered by the same method.
A dosage of 500-1000 mg was self administered by two male patients. Administration was by application to the skin, for a period of at least one hour.

[2] = cited from earlier work
[3] = skin irritation and side effects reported on transdermal administration; assay type: in vivo, human; settings: for overall assessment of side effects when administered transdermally: conclusion from the patient results
Description: Preferably, a gel preparation is applied to the skin at the site or sites of pain. Patients can be evaluated by means of a structured evaluation form, e.g., completed at a frequency of at least one time per week. Evaluation of patients are for the present symptoms as well as any side effects from currently administered medications. This makes it possible to note changes on an ongoing basis.
Patients in the examples above were evaluated by means of a structured evaluation form depicted in FIG. 1, which was completed at a frequency of at least one time per week for each patient receiving transdermal medication according to the present invention. The patients were evaluated both for all present psychiatric symptoms as well as any side effects from currently-administered medications.

[4] = patient-reported pain relief after transdermal application to site of pain; assay type: in vivo, human; settings: for overall assessment of pain relief when administered transdermally: conclusion from the patient results
Text: Compositions according the examples 45 through 47, 53, 55 were transdermally applied to numerous patients, for the purpose of treating pain including as described in other examples herein, with the results summarized in Table I below.

[5] = blood serum; cited from earlier work
[6] = summary of Table I, best result per patient

| SMILES | transdermal absorption as judged from blood level [1] | solubility in water [2] | overall assessment of side effects when administered transdermally [3] | overall assessment of pain relief when administered transdermally [4] | typical reference levels [5] | further results |
| --- | --- | --- | --- | --- | --- | --- |
| CC(NC(C)(C)C)C(=O)c1cccc(Cl)c1 (centres unmarked) [Buproprion] | poor or equivocal absorptions and results | highly soluble | – | – | – | – |
| NC(=O)N1c2ccccc2C=Cc2ccccc21 [Carbamazepine] | good absorption | practically insoluble | appears to cause a rash in at least some patients | positive effects | – | typical therapeutic levels / therapeutic reference range [5]: 4 to 10 µg/mL; solubility in alcohol and in acetone [2]: soluble |
| CNCCC(Oc1ccc(C(F)(F)F)cc1)c1ccccc1 (centres unmarked) [Fluoxetine hydrochloride] | – | – | – | – | 50 to 480 ng/mL | – |
| NCC1(CC(=O)O)CCCCC1 [Gabapentin] | – | – | free of side effects | – | – | – |
| COc1ccccc1OCC(O)CO (centres unmarked) [Guaifenesin] | – | – | – | benefit as an adjunctive treatment, of painful spasticity | – | – |
| Fc1ccc([C@@H]2CCNC[C@H]2COc2ccc3c(c2)OCO3)cc1 [Paroxetine hydrochloride] | – | – | – | – | 49 ± 26 ng/mL | – |
| CN[C@H]1CC[C@@H](c2ccc(Cl)c(Cl)c2)c2ccccc21 [Sertraline hydrochloride] | do not appear to be absorbed well or reliably | slightly soluble | – | – | 30 to 200 ng/mL | solubility in ethanol [2]: sparingly soluble; solubility in isopropyl alcohol [2]: slightly soluble |
| CCCC(CCC)C(=O)O [Valproic acid] | do not appear to be absorbed well or reliably | – | – | – | – | skin irritation ([3]; application to the skin): appears to cause skin irritation in some patients; typical therapeutic levels / therapeutic reference range [5]: 50 to 150 µg/mL |
| CN(C)CCC=C1c2ccccc2CCc2ccccc21 [amitriptyline] | – | – | – | limited pain relief | – | – |
| CN(C)CCC=C1c2ccccc2COc2ccccc21 [doxepin] | – | – | substantially free of side effects | effective pain relief medication | – | overall assessment of pain relief when administered transdermally ([4]; listed as Doxepin): about three times the positive response rate; also recorded: substantially more effective than amitriptyline; percent reported pain relief: Major [4, 6]: 23.1%; percent reported pain relief: Mild [4, 6]: 7.7%; percent reported pain relief: Mild-moderate [4, 6]: 7.7%; percent reported pain relief: Total [4, 6]: 7.7%; percent reported pain relief: moderate [4, 6]: 53.8% |
